Consider two molecules from patent US7320867B2, “Linker compound, ligand, and producing method thereof” (Japan Science and Technology Agency, priority 2000, dated 2008).

In assay [1] the target is recombinant von Willebrand's Factor (rvWF) (Homo sapiens, UniProt P04275). Nature of the assay: SPR measurement of binding between ligand-introduced chip and rvWF. As to conditions: for pKd: read-out: Dissociation constant KD. From the text:
That is, by the procedure described below, a ligand (Compound 14) was immobilized on a surface of a glass substrate with a thin gold film deposited thereon, and the binding behavior of Compound 14 with a recombinant von Willebrand's Factor (hereinafter abbreviated to rvWF), which is a heparin binding protein, was observed.
First, a sensor chip (manufactured by Japan Laser Electronics Co., Ltd.), prepared by depositing a gold film of 50 nm thick on a glass substrate of 13 mm×20 mm×0.7 mm, was placed in a UV ozone washer (product name: NL-UV253, Japan Laser Electronics Co., Ltd.), and was exposed to ultraviolet rays for 20 minutes so as to wash the gold surface of the sensor chip with ozone. Subsequently, the sensor chip was mounted on a Teflon™ cell holder in a cell. The cell, to which 50 μL of a methanol solution containing 0.1 mM of Compound 14 was added, was sealed and then gently shaken overnight at room temperature with a Bio Dancer (product name, New Brunswick Scientific Co., Ltd.). Thereafter, the cell was washed six times with 100 μL of methanol, and the sensor chip was removed from the Teflon™ cell holder. The removed sensor chip was then immersed in a Petri dish full of methanol and washed twice by gently shaking the Petri dish. Thereafter, the sensor chip was washed with water and methanol in this order in the same manner as described above, so as to obtain a ligand-introduced chip (ligand carrier). The ligand carrier was air-dried and then mounted on a sensor chip cartridge (glass prism) of a surface plasmon resonance apparatus SPR670 (product name, Japan Laser Electronics Co., Ltd.).
Except that an rvWF solution was used instead of the BSA solution (5-2) injected onto the ligand-introduced chip (obtained in 5-1), the same procedure as in (5-2) was carried out to inject the rvWF solution onto the surface of the ligand-introduced chip. It is to be noted that rvWF was dissolved in the running buffer so as to prepare an rvWF solution with a concentration of 125 nM to 1600 nM.
The rvWF solution was injected onto the surface of the ligand-introduced chip at varying concentrations, and a response (RU; response unit) based on bonding between Compound 14 and rvWF was measured as a function of injection time (sec) of the rvWF solution using the surface plasmon resonance apparatus. […]
In addition, a dissociation constant (KD), a binding rate constant (ka), and a dissociation rate constant (kd) were calculated, using software attached to the surface plasmon resonance apparatus (SPR670), based on a result (FIG. 1) yielded by observing the binding behavior of Compound 14 (ligand) with rvWF.
Then, except that the Compound 25 was used instead of the Compound 14, the procedure in (5-1) of Example 5 was followed to obtain a ligand-introduced chip. […] Thereafter, according the procedure in (5-3) of Example 5, the rvWF solution was injected onto the surface of the ligand-introduced chip, and changes in resonance angle as a function of injection time of the rvWF solution was measured using the surface plasmon resonance apparatus, so as to examine the binding behavior of Compound 25 with rvWF.
In addition, a dissociation constant (KD), a binding rate constant (ka), and a dissociation rate constant (kd) were calculated, based on FIG. 2, according to the procedure in (5-3) of Example 5.

In assay [2] the target is bovine serum albumin (BSA) (Bos taurus, UniProt P02769). Nature of the assay: SPR examination of nonspecific (hydrophobic) interaction between ligand-introduced chip and protein. Type of assay: binding. As to conditions: BSA 1 mg/mL in PBS pH 7.4, 60 μL at 15 μL/min, 25° C.
bovine serum albumin (BSA), sequence (P02769 25-607): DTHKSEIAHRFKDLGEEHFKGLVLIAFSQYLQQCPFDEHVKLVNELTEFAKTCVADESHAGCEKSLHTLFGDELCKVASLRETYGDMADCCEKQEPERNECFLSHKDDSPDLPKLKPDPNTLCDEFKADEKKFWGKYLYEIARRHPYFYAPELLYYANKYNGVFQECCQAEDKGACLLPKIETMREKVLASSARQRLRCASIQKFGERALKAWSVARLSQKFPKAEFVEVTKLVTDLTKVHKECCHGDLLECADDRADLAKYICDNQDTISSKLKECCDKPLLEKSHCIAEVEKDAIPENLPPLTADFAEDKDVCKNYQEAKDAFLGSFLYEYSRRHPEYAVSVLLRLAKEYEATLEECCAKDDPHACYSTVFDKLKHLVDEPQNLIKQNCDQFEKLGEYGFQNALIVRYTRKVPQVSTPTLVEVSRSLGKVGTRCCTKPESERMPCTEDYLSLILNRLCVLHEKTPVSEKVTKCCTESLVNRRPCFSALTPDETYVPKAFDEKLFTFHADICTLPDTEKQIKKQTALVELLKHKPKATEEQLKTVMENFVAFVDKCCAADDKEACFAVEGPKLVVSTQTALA
Where [3] appears, read: ligand immobilized on gold sensor chip, rvWF 125 nM to 1600 nM in PBS pH 7.4, 25° C., calculated with SPR670 software.

pKd: −log10 of the molar value.

recombinant von Willebrand's Factor (rvWF), sequence (P04275 23-2813): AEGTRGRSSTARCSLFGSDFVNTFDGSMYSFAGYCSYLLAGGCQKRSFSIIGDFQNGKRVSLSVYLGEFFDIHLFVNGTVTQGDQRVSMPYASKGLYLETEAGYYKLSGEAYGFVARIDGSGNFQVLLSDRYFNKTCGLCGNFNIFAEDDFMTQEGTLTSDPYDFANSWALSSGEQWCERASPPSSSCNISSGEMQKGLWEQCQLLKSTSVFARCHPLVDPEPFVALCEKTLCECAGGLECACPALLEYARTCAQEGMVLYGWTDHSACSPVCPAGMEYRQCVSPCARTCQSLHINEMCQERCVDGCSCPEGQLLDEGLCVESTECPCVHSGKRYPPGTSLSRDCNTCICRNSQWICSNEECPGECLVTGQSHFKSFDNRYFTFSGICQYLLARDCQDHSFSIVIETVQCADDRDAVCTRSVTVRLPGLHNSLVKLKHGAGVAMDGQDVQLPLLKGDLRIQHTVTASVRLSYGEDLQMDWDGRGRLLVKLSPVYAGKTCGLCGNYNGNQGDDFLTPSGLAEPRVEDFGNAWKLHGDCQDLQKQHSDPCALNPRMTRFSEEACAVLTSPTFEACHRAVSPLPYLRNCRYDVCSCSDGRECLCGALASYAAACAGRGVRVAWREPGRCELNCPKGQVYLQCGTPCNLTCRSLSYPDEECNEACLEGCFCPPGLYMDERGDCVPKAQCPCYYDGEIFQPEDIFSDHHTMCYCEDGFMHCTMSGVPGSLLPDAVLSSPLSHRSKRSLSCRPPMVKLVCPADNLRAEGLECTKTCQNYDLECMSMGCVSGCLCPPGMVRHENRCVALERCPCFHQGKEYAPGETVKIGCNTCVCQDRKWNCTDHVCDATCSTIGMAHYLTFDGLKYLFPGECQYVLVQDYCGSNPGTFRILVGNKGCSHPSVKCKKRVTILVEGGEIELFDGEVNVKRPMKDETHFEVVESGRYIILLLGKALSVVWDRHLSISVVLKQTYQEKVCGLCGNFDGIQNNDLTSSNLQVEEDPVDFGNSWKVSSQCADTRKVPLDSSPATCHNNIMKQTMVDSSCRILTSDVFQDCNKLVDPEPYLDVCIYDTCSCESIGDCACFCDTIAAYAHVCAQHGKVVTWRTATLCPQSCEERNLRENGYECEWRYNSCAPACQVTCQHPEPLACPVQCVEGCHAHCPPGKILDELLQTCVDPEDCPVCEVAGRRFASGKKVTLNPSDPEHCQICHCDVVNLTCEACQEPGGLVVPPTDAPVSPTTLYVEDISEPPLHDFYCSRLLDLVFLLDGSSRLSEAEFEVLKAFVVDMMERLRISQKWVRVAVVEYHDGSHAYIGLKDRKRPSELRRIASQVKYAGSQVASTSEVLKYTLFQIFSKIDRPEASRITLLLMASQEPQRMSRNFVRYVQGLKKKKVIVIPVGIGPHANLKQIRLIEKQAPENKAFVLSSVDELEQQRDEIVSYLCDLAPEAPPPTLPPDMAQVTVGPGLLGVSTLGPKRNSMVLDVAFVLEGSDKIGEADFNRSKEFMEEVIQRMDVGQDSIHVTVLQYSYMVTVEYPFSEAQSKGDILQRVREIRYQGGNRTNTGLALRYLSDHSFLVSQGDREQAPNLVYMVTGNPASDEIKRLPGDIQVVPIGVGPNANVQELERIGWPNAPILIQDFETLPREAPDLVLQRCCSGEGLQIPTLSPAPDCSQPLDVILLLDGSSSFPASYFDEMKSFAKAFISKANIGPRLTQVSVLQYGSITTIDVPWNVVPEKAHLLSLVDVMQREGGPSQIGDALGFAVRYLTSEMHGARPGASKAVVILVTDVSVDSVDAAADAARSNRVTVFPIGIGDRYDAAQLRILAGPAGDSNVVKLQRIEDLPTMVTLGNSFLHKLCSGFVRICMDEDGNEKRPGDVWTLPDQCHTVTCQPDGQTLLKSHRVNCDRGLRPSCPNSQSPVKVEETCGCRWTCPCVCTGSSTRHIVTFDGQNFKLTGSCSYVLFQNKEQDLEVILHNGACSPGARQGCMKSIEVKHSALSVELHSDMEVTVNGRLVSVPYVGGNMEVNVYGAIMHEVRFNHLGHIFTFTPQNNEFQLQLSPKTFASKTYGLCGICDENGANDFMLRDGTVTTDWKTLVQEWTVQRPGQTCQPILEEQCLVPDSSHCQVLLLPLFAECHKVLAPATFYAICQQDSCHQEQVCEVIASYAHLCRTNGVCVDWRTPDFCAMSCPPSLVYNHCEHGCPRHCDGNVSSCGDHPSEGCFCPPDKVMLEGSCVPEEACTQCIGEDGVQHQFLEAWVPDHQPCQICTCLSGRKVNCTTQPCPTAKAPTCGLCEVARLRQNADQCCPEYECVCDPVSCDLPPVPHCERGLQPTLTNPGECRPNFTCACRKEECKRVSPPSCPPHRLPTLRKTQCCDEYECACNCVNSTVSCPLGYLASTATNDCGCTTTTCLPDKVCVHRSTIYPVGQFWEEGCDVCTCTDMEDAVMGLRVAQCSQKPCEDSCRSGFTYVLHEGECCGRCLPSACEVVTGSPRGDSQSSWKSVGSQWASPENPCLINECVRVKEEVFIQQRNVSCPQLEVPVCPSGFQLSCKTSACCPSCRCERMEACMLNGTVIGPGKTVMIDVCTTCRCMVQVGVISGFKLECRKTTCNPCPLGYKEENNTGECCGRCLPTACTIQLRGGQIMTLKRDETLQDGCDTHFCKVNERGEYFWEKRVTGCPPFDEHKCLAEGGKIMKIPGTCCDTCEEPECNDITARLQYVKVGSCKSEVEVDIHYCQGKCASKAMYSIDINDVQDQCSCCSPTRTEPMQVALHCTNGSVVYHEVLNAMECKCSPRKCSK

For the molecule `COC1C(COS(=O)(=O)O)OC(OC2C(C(=O)O)OC(OCC(O)C(O)C(O)C(O)CNc3cccc(NC(=O)CCCCC4CCSS4)c3)C(OS(=O)(=O)O)C2O)C(NS(=O)(=O)O)C1O` (stereo not shown) [Compound 25], the kon in assay [1] (ligand immobilized on gold sensor chip, rvWF 125 nM to 1600 nM in PBS pH 7.4, 25° C., calculated with SPR670 software, read-out: Binding rate constant ka) was 8380 M⁻¹ s⁻¹. Also, the pKd in assay [1] (setting [3]) was 5.59. In addition, the koff in assay [1] (ligand immobilized on gold sensor chip, rvWF 125 nM to 1600 nM in PBS pH 7.4, 25° C., calculated with SPR670 software, read-out: Dissociation rate constant kd) is 0.0219 s⁻¹. Also, the “Nonspecific interaction based on hydrophobic interaction (resonant angle change)” value in assay [2] was “no nonspecific interaction”.

Regarding `COC1C(COS(=O)(=O)O)OC(OC2C(C(=O)O)OC(OCC(O)C(O)C(O)C(O)CNc3cccc(NC(=O)CCC(CCC(=O)Nc4cccc(NCC(O)C(O)C(O)C(O)COC5OC(C(=O)O)C(OC6OC(COS(=O)(=O)O)C(OC)C(O)C6NS(=O)(=O)O)C(O)C5OS(=O)(=O)O)c4)(CCC(=O)Nc4cccc(NCC(O)C(O)C(O)C(O)COC5OC(C(=O)O)C(OC6OC(COS(=O)(=O)O)C(OC)C(O)C6NS(=O)(=O)O)C(O)C5OS(=O)(=O)O)c4)NC(=O)CNC(=O)CCCCC4CCSS4)c3)C(OS(=O)(=O)O)C2O)C(NS(=O)(=O)O)C1O` (stereo not shown) [Compound 14], in assay [1] (comparison from Table 1), the “Affinity for rvWF compared with ligand-introduced chip using Compound 25” value was “higher affinity for rvWF”. For the same molecule, in assay [1] (setting [3]), the pKd was 5.92. The “Nonspecific interaction based on hydrophobic interaction (resonant angle change)” value in assay [2] is given as “almost no resonant angle change”.

As usually defined, the pKd is the Kd on a negative log10 scale, so that one unit is a factor of ten.
